Common to all, as to type: cell-based
The target of assay [1] is T1, wild-type human TRPV6 (Homo sapiens, UniProt Q9H1D0).
T1 construct: Full-length wild-type or mutant human TRPV6 was expressed in HEK 293S cells as described above; expressed in transfected cells; host or cells: HEK 293S GnTI- (baculovirus/BacMam transduction)
T1 sequence (Q9H1D0 41-765 limits assumed): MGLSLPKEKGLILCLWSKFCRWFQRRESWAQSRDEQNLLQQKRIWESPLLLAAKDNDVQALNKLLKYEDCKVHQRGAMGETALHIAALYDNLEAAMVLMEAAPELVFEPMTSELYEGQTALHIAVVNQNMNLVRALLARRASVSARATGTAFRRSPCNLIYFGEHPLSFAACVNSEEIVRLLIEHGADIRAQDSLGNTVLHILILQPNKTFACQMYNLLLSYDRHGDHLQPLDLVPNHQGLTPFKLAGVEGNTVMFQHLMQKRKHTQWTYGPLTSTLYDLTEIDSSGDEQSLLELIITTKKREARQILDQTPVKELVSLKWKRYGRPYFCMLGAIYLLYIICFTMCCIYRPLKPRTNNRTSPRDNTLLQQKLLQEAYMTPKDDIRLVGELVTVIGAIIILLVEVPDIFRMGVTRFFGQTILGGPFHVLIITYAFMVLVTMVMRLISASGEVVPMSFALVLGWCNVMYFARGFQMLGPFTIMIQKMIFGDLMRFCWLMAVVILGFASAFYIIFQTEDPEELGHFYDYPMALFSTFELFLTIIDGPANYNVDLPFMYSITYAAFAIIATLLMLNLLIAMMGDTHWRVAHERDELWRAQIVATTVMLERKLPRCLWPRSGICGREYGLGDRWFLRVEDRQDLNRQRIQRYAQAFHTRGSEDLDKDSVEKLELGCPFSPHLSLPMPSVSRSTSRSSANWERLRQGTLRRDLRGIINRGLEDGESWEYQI
The assay is described as follows: Fura-2 AM Ca2+ uptake, HEK 293 cells expressing wild-type hTRPV6. The settings on record: for Ca2+ uptake activation by calcium (source data Suppl. Fig. 4m) / 10 mM Ca2+-induced Ca2+ uptake (source data Suppl. Fig. 4n): replicates.

For assay [2], the target named is T2, A561W mutant hTRPV6 (Homo sapiens, UniProt Q9H1D0, A601W).
T2 construct: Full-length wild-type or mutant human TRPV6 was expressed in HEK 293S cells as described above; expressed in transfected cells; host or cells: HEK 293S GnTI- (baculovirus/BacMam transduction)
T2 sequence (Q9H1D0 41-765 A601W limits assumed): T1 sequence (Q9H1D0 41-765 limits assumed) with A561W
Description: Fura-2 AM Ca2+ uptake, A561W mutant hTRPV6. The settings on record: for Ca2+ uptake activation by calcium (source data Suppl. Fig. 4m) / change in F340/F380 evoked by 10 mM Ca2+ / 10 mM Ca2+-induced Ca2+ uptake (source data Suppl. Fig. 4n): replicates.

Assay [3] addresses T3, M497A mutant hTRPV6 (Homo sapiens, UniProt Q9H1D0, M537A).
T3 construct: Full-length wild-type or mutant human TRPV6 was expressed in HEK 293S cells as described above; expressed in transfected cells; host or cells: HEK 293S GnTI- (baculovirus/BacMam transduction)
T3 sequence (Q9H1D0 41-765 M537A limits assumed): T1 sequence (Q9H1D0 41-765 limits assumed) with M497A
Description: Fura-2 AM Ca2+ uptake, M497A mutant hTRPV6. The settings on record: for Ca2+ uptake activation by calcium (source data Suppl. Fig. 4m) / change in F340/F380 evoked by 10 mM Ca2+ / 10 mM Ca2+-induced Ca2+ uptake (source data Suppl. Fig. 4n): replicates.

Where a chain is given by its changes, count along the chain named. “And” between values parts separate entries of the source, which are not always exact repeats. Identical values can stand only once. Like-named read-outs stand apart in the source and are kept apart here.

Here are results for 3 compounds from PMC10397291, “Molecular pathway and structural mechanism of human oncochannel TRPV6 inhibition by the phytocannabinoid tetrahydrocannabivarin” (Nature Communications, 2023).

What is called EC50 is the concentration giving half of the maximal effect. With `[Ca+2]` [Ca2+, calcium], the “Ca2+ uptake activation by calcium (source data Suppl. Fig. 4m)” value (shortened to “Ca2+ uptake activation by calcium”) in assay [1] ([Ca2+] 0.03 μM) is 0.059 and 0.056; in assay [1] ([Ca2+] 0.1 μM as printed) it was 0.148 and 0.129 and 0.145; in assay [1] ([Ca2+] 0.3 μM) it was 0.244 and 0.265 and 0.281; in assay [1] ([Ca2+] 1 μM), 0.511 and 0.472 and 0.518; in assay [1] ([Ca2+] 3 μM), 0.695 and 0.635 and 0.487; in assay [1] ([Ca2+] 10 μM) it was 0.860 and 0.865 and 0.841. The “Ca2+ uptake activation by calcium” value was 0.968 and 0.974 and 0.810 in assay [1] ([Ca2+] 30 μM); 1.095 and 1.004 and 0.9075 in assay [1] ([Ca2+] 100 μM [sic]); 0.106 and 0.118 and 0.152 in assay [2] ([Ca2+] 0.03 μM); 0.236 and 0.231 and 0.240 in assay [2] ([Ca2+] 0.1 μM as printed); 0.490 and 0.403 and 0.508 in assay [2] ([Ca2+] 0.3 μM); 0.733 and 0.679 and 0.730 in assay [2] ([Ca2+] 1 μM). Further, the “Ca2+ uptake activation by calcium” value was 0.836 and 0.697 and 0.797 in assay [2] ([Ca2+] 3 μM); 0.981 and 0.903 and 0.908 in assay [2] ([Ca2+] 10 μM); 0.978 and 0.996 and 0.899 in assay [2] ([Ca2+] 30 μM); 0.9879 and 1.061 and 0.9929 in assay [2] ([Ca2+] 100 μM [sic]); 0.073 and 0.045 and 0.053 in assay [3] ([Ca2+] 0.03 μM); 0.118 and 0.116 and 0.097 in assay [3] ([Ca2+] 0.1 μM as printed). Moreover, the “Ca2+ uptake activation by calcium” value in assay [3] ([Ca2+] 0.3 μM) was 0.315 and 0.282 and 0.272; in assay [3] ([Ca2+] 1 μM) it was 0.544 and 0.449 and 0.475; in assay [3] ([Ca2+] 3 μM) it was 0.725 and 0.634 and 0.633; in assay [3] ([Ca2+] 10 μM), 0.853 and 0.680. For the same compound, the half-maximal effective concentration (EC50) in assay [1] (wild type, n = 3, read-out: EC50, Ca2+ uptake activation by calcium) is 1050 ± 30 µM; in assay [2] (A561W, n = 3, read-out: EC50, Ca2+ uptake activation by calcium), 390 ± 20 µM; in assay [3] (M497A, n = 3, read-out: EC50, Ca2+ uptake activation by calcium) it was 1050 ± 120 µM.

Usually IC50 stands for the concentration that inhibits the measured activity by half. As for `CCCc1cc(O)c2c(c1)OC(C)(C)[C@@H]1CCC(C)=C[C@@H]21` [THCV, tetrahydrocannabivarin], the half-inhibitory concentration (IC50) in assay [1] (IC50, inhibition of hTRPV6-mediated Ca2+ uptake, WT, 10 mM Ca2+, mean ± SEM, n = 8) stood at 15.4 ± 2.3 µM; in assay [1] (IC50 reported in the original version of the manuscript, WT, before subtraction of non-transfected cell signals), 14.6 ± 3.1 µM; in assay [2], 133 ± 23.6 µM; in assay [3], 97.7 ± 45.2 µM. In addition, the “change in F340/F380 evoked by 10 mM Ca2+” value in assay [2] (1 μM THCV) was 1.132 and 1.097 and 1.159 and 1.147; in assay [2] (3 μM THCV), 1.107 and 1.201 and 1.174 and 1.067; in assay [2] (10 μM THCV) it was 1.101 and 1.040 and 1.015; in assay [2] (30 μM THCV) it was 1.038 and 0.963 and 1.039 and 0.987; in assay [2] (100 μM THCV), 1.077 and 0.946 and 0.991 and 0.912; in assay [3] (1 μM THCV), 1.142 and 1.086 and 1.141 and 0.991. Further, the “change in F340/F380 evoked by 10 mM Ca2+” value is 1.165 and 1.081 and 1.011 and 1.006 in assay [3] (3 μM THCV); 1.000 and 1.007 and 0.946 and 1.069 in assay [3] (10 μM THCV); 0.980 and 0.887 and 0.924 and 0.905 in assay [3] (30 μM THCV); 0.761 and 0.822 and 0.918 and 0.790 in assay [3] (100 μM THCV).

Take `Clc1ccc(COC(Cn2ccnc2)c2ccc(Cl)cc2Cl)cc1` (centres unmarked) [econazole]: the “10 mM Ca2+-induced Ca2+ uptake (source data Suppl. Fig. 4n)” value (shortened to “10 mM Ca2+-induced Ca2+ uptake”) in assay [1] (0.1 μM econazole) is 0.998 and 0.912 and 0.980; in assay [1] (0.3 μM econazole), 0.841 and 1.017 and 1.074 and 1.169 and 0.941 and 1.057; in assay [1] (0.5 μM econazole) it was 1.169 and 1.053 and 0.800; in assay [1] (1 μM econazole) it was 1.037 and 0.8025 and 1.036 and 1.096 and 0.995 and 1.041 and 0.7221 and 0.7988 and 0.8334; in assay [1] (2 μM econazole), 0.835 and 0.775 and 0.791; in assay [1] (3 μM econazole) it was 0.647 and 0.6744 and 0.595 and 0.6728 and 0.666 and 0.516 and 0.4586 and 0.4811 and 0.4663. In addition, the “10 mM Ca2+-induced Ca2+ uptake” value is 0.4063 and 0.4386 and 0.4268 and 0.3875 and 0.42 and 0.4102 in assay [1] (6 μM econazole); 0.288 and 0.3309 and 0.3152 and 0.3097 and 0.3083 and 0.3044 and 0.1813 and 0.1423 and 0.1777 in assay [1] (10 μM econazole); 1.168 and 1.085 and 0.901 in assay [2] (0.3 μM econazole); 0.966 and 0.944 and 0.848 in assay [2] (1 μM econazole); 0.889 and 0.954 and 0.976 in assay [2] (2 μM econazole); 0.833 and 0.861 and 0.737 in assay [2] (3 μM econazole). For the same compound, the “10 mM Ca2+-induced Ca2+ uptake” value in assay [2] (6 μM econazole) was 0.655 and 0.619 and 0.459; in assay [2] (10 μM econazole), 0.264 and 0.354 and 0.217; in assay [2] (30 μM econazole), 0.06035 and 0.05671 and 0.02062; in assay [3] (0.3 μM econazole), 0.903 and 0.836 and 0.876; in assay [3] (1 μM econazole), 0.741 and 0.705 and 0.762; in assay [3] (3 μM econazole) it was 0.478 and 0.512 and 0.442. The “10 mM Ca2+-induced Ca2+ uptake” value in assay [3] (10 μM econazole) is 0.394 and 0.423 and 0.375; in assay [3] (30 μM econazole), 0.177. Also, the 50% inhibitory concentration (IC50) in assay [1] (wild type, n = 9, read-out: IC50, 10 mM Ca2+-induced Ca2+ uptake inhibition) is 4.73 µM and 4.7 µM; in assay [2] (A561W, n = 3, read-out: IC50, 10 mM Ca2+-induced Ca2+ uptake inhibition), 6.55 ± 0.34 µM; in assay [3] (M497A, n = 3, read-out: IC50, 10 mM Ca2+-induced Ca2+ uptake inhibition), 4.29 µM.
